Here are results for 15 compounds from PubChem BioAssay (NCI).

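Results reflect a 48-hour exposure of cells in 96-well plates to compound at five concentrations. At the GI50, growth is halved. TGI: total growth inhibition.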

Test in all cases: NCI-60 cell line screen, 48 h
In assay [1] the test system is KM12 colon.
Assay [2] relates to NCI-H522 lung.
Assay [3] concerns UACC-62 melanoma.
The subject of assay [4] is CCRF-CEM leukemia.
For assay [5], the system named is M14 melanoma.
For assay [6], the system named is NCI-H460 lung.
Assay [7] has as its system SK-MEL-2 melanoma.
Assay [8] has as its system OVCAR-4 ovarian.
Assay [9] concerns NCI-H226 lung.
The subject of assay [10] is NCI/ADR-RES ovarian.

On to `COc1ccc(N2C(=O)C(N3C(=O)C=CC3=O)C2C=O)cc1` (configuration not stated), for which the TGI in assay [1], in assay [2], in assay [3], in [4], in assay [5] and in assay [6] was > 100 µM each time. The TGI in [7] was > 100 µM.
For the compound `COc1cccc2c1[C@]1(O)C(O)CCCC21` (some centres not stated), the TGI in assay [1], in assay [2], in [8], in assay [3], in [4] and in assay [5] was > 100 µM throughout. The TGI in assay [6], in assay [9] and in assay [7] was > 100 µM each time.
Take `c1cc2ccc1CNCCN1CCNCc3ccc(cc3)Oc3ccc(cc3)CNCCN(CCNCc3ccc(cc3)O2)CCNCc2ccc(cc2)Oc2ccc(cc2)CNCC1`: the GI50 in assay [1] was 1.77 µM; in assay [8], 1.79 µM; in assay [3] it was 1.66 µM; in [5], 1.7 µM; in assay [6] it was 1.71 µM; in [10], 16.7 µM. The GI50 in assay [7] is 1.6 µM. Besides, the TGI came to 3.22 µM in assay [1]; 3.34 µM in assay [8]; 3.1 µM in [3]; 3.38 µM in assay [5]; 3.27 µM in assay [6]; 63.5 µM in assay [10]. Besides, the TGI in assay [7] stood at 3.14 µM.
As for `CC1(C)CC2(C)OC(=N)C1(C#N)C2(C#N)C#N` (configuration not stated), the TGI in assay [1] worked out at 29.4 µM; in assay [2], 8.38 µM; in [3], 24.9 µM; in assay [5], 23.8 µM; in [10] it was 29.5 µM; in assay [7] it was 31.7 µM.
With `CCC1CCC2c3c([nH]c4ccccc34)C3C(=O)N(c4ccc(OC)cc4)C(=O)C3C2C1` (configuration not stated), the TGI in [1] was > 100 µM; in assay [2], > 100 µM; in assay [8], 36 µM; in assay [3], > 100 µM; in [4] it was 26.7 µM; in assay [5], > 100 µM. The TGI in [6], in assay [10] and in assay [9] was > 100 µM each time.
As for `O=C(C=P(c1ccccc1)(c1ccccc1)c1ccccc1)c1ccc(-c2ccc(F)cc2F)cc1`, the TGI in [1] stood at 13.8 µM; in assay [8] it was 9.96 µM; in assay [3] it was 4.25 µM; in assay [4], 7.06 µM; in assay [5], 5.76 µM; in assay [6] it was 4.09 µM. Also, the TGI in assay [10] is 13.2 µM; in assay [9], 7.16 µM.
Take `CC1OC=CC(=O)C1O` (configuration not stated): the TGI in [1], in assay [2], in assay [8], in assay [3], in assay [4] and in assay [5] was > 100 µM each time. In addition, the TGI in [6] and in [7] was > 100 µM each time.
Take `COc1cc(-c2[o+]c3cc(O)cc(OC4OC(CO)C(O)C(O)C4O)c3cc2OC2OC(CO)C(O)C(O)C2O)cc(OC)c1O` (configuration not stated): the TGI in assay [1], in assay [2], in assay [8], in assay [3], in assay [4] and in assay [5] was > 100 µM throughout. The TGI in assay [6], in assay [9] and in assay [7] was > 100 µM each time.
Take `c1ccc(-c2[nH]c(-c3ccccc3)c(-c3cnccn3)c2-c2cnccn2)cc1`: the TGI in [1], in [2], in assay [8], in assay [3], in [4] and in [5] was > 100 µM each time. In addition, the TGI in [6], in [9] and in [7] was > 100 µM each time.
For the compound `CC1(O)C(=O)OC2CC([C@]3(O)CCC4[C@@H]5C[C@H]6O[C@]67[C@@H](O)C=CC(=O)[C@]7(C)C5CC[C@@]43C)C1(C)C2` (some centres not stated), the TGI in assay [1] was > 64.1 µM; in [2], 4.85 µM; in assay [8] it was 26.5 µM; in assay [3] it was 30.2 µM; in assay [4] it was 9.54 µM; in assay [5], 26.4 µM. Also, the TGI was > 80.5 µM in [6], > 100 µM in assay [10] and 28.6 µM in assay [7].
`COc1ccc(NS(=O)c2cccc(C)c2)cc1` (configuration not stated): the TGI in assay [1], in assay [2], in assay [4], in [5], in [6] and in assay [10] was > 100 µM each time. Besides, in assay [9], the TGI is > 100 µM.
Consider `O=C1OC2C=CC1C1(CCOC1=O)C2` (configuration not stated), for which the TGI in [1] was > 100 µM; in [2] it was > 100 µM; in assay [8], > 100 µM; in assay [3], 94.6 µM; in assay [4], > 100 µM; in assay [5] it was > 100 µM. For the same compound, the TGI in assay [6], in assay [9] and in assay [7] was > 100 µM in each case.
Consider `CCOC(=O)c1cn(C)nc1N/C(C)=C\C(=O)c1ccccc1`, for which the TGI in assay [1], in assay [2], in assay [8], in assay [3], in [4] and in assay [5] was > 100 µM throughout. Moreover, the TGI in [6], in [10] and in [9] was > 100 µM each time.
For `O=S(=O)(/N=C1/SC(=Nc2ccccc2)N(c2ccccc2)/C1=N/S(=O)(=O)c1ccccc1)c1ccccc1`, the TGI turned out to be 71 µM in [1]; 31.9 µM in assay [3]; 55 µM in assay [4]; 62.8 µM in assay [5]; 51.6 µM in [6]; 45.7 µM in [9]. In addition, in assay [7], the TGI was 45 µM.
Turning to `C=C1C(=O)O[C@H]2C/C(C=O)=C\[C@H]3O[C@H]3/C(COC(=O)C(C)C)=C/CC12` (some centres not stated), the TGI came out at 22.7 µM in [1]; 10.5 µM in assay [2]; 5.42 µM in assay [3]; 6.63 µM in assay [4]; 26.8 µM in assay [6]; 33.8 µM in assay [10]. Also, the TGI in [9] stood at 51.1 µM.
